The values that follow are results of earlier work, collected in US20180092930A1, “METHODS OF DIAGNOSING AND TREATING ABIRATERONE ACETATE- GLUCOCORTICOID -RESISTANT OR -SENSITIVE METASTATIC CASTRATION RESISTANT PROSTATE CANCER” (Janssen Pharmaceutica NV, priority 2016, published 2018).

Read-outs that look alike come from different tables or passages of the source.

Data set [1] deals with castration-resistant prostate cancer.
Data set [2] relates to CRPC. Conditions: pooled patients treated with AA or enzalutamide.

On to `CC(=O)O[C@H]1CC[C@@]2(C)C(=CC[C@@H]3[C@@H]2CC[C@]2(C)C(c4cccnc4)=CC[C@@H]32)C1` [abiraterone acetate], for which, in data set [1] (ARV7-negative patients), the PSA response rate is listed as 68%; the “PSA-PFS, median” value is reported as “not reached”; the “clinical or radiographic progression-free survival, median” value is on record as “not reached”; the “overall survival, median” value is given as “not reached”. Moreover, in data set [1] (ARV7-positive patients), the PSA response rate is recorded as 0%; the “PSA-PFS, median” value is given as 1.3 months; the “clinical or radiographic progression-free survival, median” value is listed as 2.3 months; the “overall survival, median” value is recorded as 10.6 months. Moreover, the OS in data set [2] (ARV7+ at baseline) is 8 months. Also, the OS entry in data set [2] (ARV7- at baseline) is reported as “not reached”.
As to `CNC(=O)c1ccc(N2C(=S)N(c3ccc(C#N)c(C(F)(F)F)c3)C(=O)C2(C)C)cc1F` [enzalutamide], the OS in data set [2] (ARV7+ at baseline) is 8 months; in data set [2] (ARV7- at baseline) it was “not reached”.
